Test results taken from paper PMC7046201, “Unexpected differences in the pharmacokinetics of N-acetyl-DL-leucine enantiomers after oral dosing and their clinical relevance” (PLoS ONE, 2020).
Values joined by “and” are separate entries in the source; they are usually repeats but may differ in a detail not shown here. Equal values may be shown once. Blank lines part the entries; values can stand above or below the compound they belong to.

What was measured:
[1] = Plasma pharmacokinetics of N-acetyl-leucine enantiomers after oral dosing of mice
Experimental: The animals were weighed on the day prior to dosing. The compound was administered to male BALB/c mice (n = 3 per time point) p.o. (100 mg/kg; 10 mL/kg) by oral gavage. Blood samples were collected into potassium EDTA tubes by venepuncture from the saphenous vein. Within 30 min following the sampling, blood was centrifuged for plasma separation (room temperature; 10 min; 2700 xg). The plasma samples were transferred into plastic tubes, frozen and stored at –20°C.
The plasma samples were prepared for analysis by mixing 50 μL of plasma with 100 μL of acetonitrile and mixed. In addition to plasma, skeletal muscle and brain tissue was also taken at less frequent time points (0.5, 2, 6, 24 and 48 h) and prepared for analysis by homogenization of 50 mg of tissue with 100 μL of acetonitrile. The samples were transferred to Waters 96-well plate and the sample was evaporated under nitrogen gas flow. The sample was reconstituted into 150 μl of 50% methanol:water and analysed by LC/MS. Standard plasma samples were prepared by spiking the injection solution with concentrations from 1 to 10 000 ng/mL by using one volume of spiking solution and nine volumes of injection solution. These samples were then prepared for analysis in the same way as the samples. […] QC samples from racemic-N-Acetyl-Leucine were prepared into concentrations of 40, 400 and 4000 ng/mL, corresponding to […] concentration of both D- and L-enantiomers, respectively. […] QC samples were then prepared for analysis in the same way as the samples.
Quantification by HPLC was performed using a Supelco Astec CHIROBIOTIC T chiral HPLC column (2.1 x 150 mm, 5 μm particle size) with a Waters Acquity UPLC + Thermo Q-Exactive hybrid Orbitrap MS, using ESI negative polarity, nitrogen auxiliary gas (450°C), capillary voltage was […] and controlled with the software Xcalibur 4.1. Samples were injected as a 4-μL volume and eluted with a gradient of buffer A (20 mM ammonium acetate) and buffer B (methanol) with a flow rate of 0.3 mL/min and column oven temperature of 30°C. The gradient was 80% A at 0 min; 20% A at 3.5 min and 80% A at 4.5 min Parallel Reaction Monitoring (PRM) and Full-MS-dd-MS2 were measured at the same time. […] Ions with aforementioned m/z was then collided and leucine fragment (m/z 130 or 134) was used in quantitation. In full-MS-dd-MS2 mode, every ion with intensity over a certain intensity was collided and fragments analyzed.
Plasma pharmacokinetic parameters of the N-acetyl-leucine enantiomers were calculated using Phoenix 64 (Build 6.4.0.768) WinNonlin (version 6.4) software, using non-compartmental method with sparse sampling. Nominal doses were used for all animals. The terminal phase half-life (T1/2), the time for 50% of the plasma concentration to decrease after some point of elimination, was calculated by least-squares regression analysis of the terminal linear part of the log concentration–time curve using the relationship 0.693/ke. The area under the plasma concentration–time curve (AUC), an estimation of plasma drug exposure over time, was determined with the linear trapezoidal rule for increasing values and log trapezoidal rule for decreasing values up to the last measurable concentration (AUC0-last). The first order elimination rate constant ke was calculated as the slope (minimum 3 points) from the terminal log plasma concentration time curve. The maximum concentration (Cmax) and the time taken to achieve the peak concentration (Tmax) after oral dose were obtained directly from the plasma concentration data without interpolation. The theoretical background and interpretation of the pharmacokinetic data was based on. Where appropriate, data are expressed as the mean ± standard error of the mean. Means were statistically analysed by either pre-planned t tests or a one-sample t test comparing the measured value with the expected value.

[2] = Skeletal muscle concentration of enantiomers after oral dosing of mice; type: in vivo, male BALB/c mice; details: individual mice
Experimental: (§1) In addition to plasma, skeletal muscle and brain tissue was also taken at less frequent time points (0.5, 2, 6, 24 and 48 h) and prepared for analysis by homogenization of 50 mg of tissue with 100 μL of acetonitrile. The samples were transferred to Waters 96-well plate and the sample was evaporated under nitrogen gas flow. The sample was reconstituted into 150 μl of 50% methanol:water and analysed by LC/MS. […] These samples were then prepared for analysis in the same way as the samples. […] QC samples from racemic-N-Acetyl-Leucine were prepared into concentrations of 40, 400 and 4000 ng/mL, corresponding to 20, 200 and 200 ng/mL concentration of both D- and L-enantiomers, respectively. […] QC samples were then prepared for analysis in the same way as the samples.
(§2) Quantification by HPLC was performed using a Supelco Astec CHIROBIOTIC T chiral HPLC column (2.1 x 150 mm, 5 μm particle size) with a Waters Acquity UPLC + Thermo Q-Exactive hybrid Orbitrap MS, using ESI negative polarity, nitrogen auxiliary gas (450°C), capillary voltage was 2000 and 350°C and controlled with the software Xcalibur 4.1. Samples were injected as a 4-μL volume and eluted with a gradient of buffer A (20 mM ammonium acetate) and buffer B (methanol) with a flow rate of 0.3 mL/min and column oven temperature of 30°C. The gradient was 80% A at 0 min; 20% A at 3.5 min and 80% A at 4.5 min Parallel Reaction Monitoring (PRM) and Full-MS-dd-MS2 were measured at the same time. […] Ions with aforementioned m/z was then collided and leucine fragment (m/z 130 or 134) was used in quantitation. In full-MS-dd-MS2 mode, every ion with intensity over a certain intensity was collided and fragments analyzed.

[3] = Brain concentration of enantiomers after oral dosing of mice; type: in vivo, male BALB/c mice
Experimental: as §1, §2

[4] = set-up: method as in Neuzil et al. 2002; details: humans, oral absorption; ref Neuzil et al. 2002; cited from earlier work
[5] = 0.15 h after p.o. N-Acetyl-L-Leucine 100 mg/kg, individual mice
[6] = 0.30 h after p.o. N-Acetyl-L-Leucine 100 mg/kg, individual mice
[7] = 1.00 h after p.o. N-Acetyl-L-Leucine 100 mg/kg, individual mice
[8] = 2.00 h after p.o. N-Acetyl-L-Leucine 100 mg/kg, individual mice
[9] = 4.00 h after p.o. N-Acetyl-L-Leucine 100 mg/kg, individual mice
[10] = 6.00 h after p.o. N-Acetyl-L-Leucine 100 mg/kg, individual mice
[11] = 8.00 h after p.o. N-Acetyl-L-Leucine 100 mg/kg, individual mice
[12] = 24.0 h after p.o. N-Acetyl-L-Leucine 100 mg/kg, individual mice
[13] = 32.0 h after p.o. N-Acetyl-L-Leucine 100 mg/kg, individual mice
[14] = 48.0 h after p.o. N-Acetyl-L-Leucine 100 mg/kg, individual mice
[15] = male, BALB/c, mouse, in vivo, po, 100 mg/kg
[16] = male, BALB/c, mouse, plasma, oral, 100 mg/kg, concentration in plasma, 0.30 h after p.o. N-Acetyl-L-Leucine 100 mg/kg, individual mice
[17] = male, BALB/c, mouse, plasma, oral, 100 mg/kg, concentration in plasma, 6.00 h after p.o. N-Acetyl-L-Leucine 100 mg/kg, individual mice
[18] = male, BALB/c, mouse, plasma, po, 100 mg/kg
[19] = plasma, after oral N-Acetyl-L-Leucine, nominal dose 100 mg/kg
[20] = plasma, after oral N-Acetyl-L-Leucine, nominal dose 100 mg/kg, 100 mg/kg
[21] = plasma, after oral N-Acetyl-L-Leucine, nominal dose 100 mg/kg, listed as L-enantiomer, 100 mg/kg
[22] = 0.30 h after p.o. N-Acetyl-DL-Leucine 100 mg/kg
[23] = 2.00 h after p.o. N-Acetyl-DL-Leucine 100 mg/kg
[24] = male, BALB/c, mouse, skeletal muscle, oral, 100 mg/kg, 0.30 h after p.o. N-Acetyl-DL-Leucine 100 mg/kg
[25] = plasma, after oral N-Acetyl-L-Leucine, nominal dose 100 mg/kg, listed as D-enantiomer, 100 mg/kg

concentration in plasma [1, 6]: 7520 ng/mL and 10500 ng/mL
concentration in plasma [1, 7]: 1590 ng/mL and 4280 ng/mL and 5300 ng/mL
concentration in plasma [1, 8]: 73 ng/mL and 663 ng/mL and 502 ng/mL
concentration in plasma [1, 9]: 131 ng/mL and 139 ng/mL and 304 ng/mL
concentration in plasma [1, 10]: <LoQ and 114 ng/ml
concentration in plasma [1, 11]: <LoQ
concentration in plasma [1, 12]: <LoQ
concentration in plasma [1, 13]: <LoQ
concentration in plasma [1, 14]: <LoQ
actual dose proportionality for AUC ([1]; male, BALB/c, mouse, in vivo): 4.6 fold
actual dose proportionality for Cmax ([1]; male, BALB/c, mouse, in vivo): 4.9 fold
Clast [1, 15]: 623 ng/mL
Cmax [1, 15]: 3410 ng/mL
Tmax [1, 15]: < 15 min
half-life [1, 15]: 24 min
k el [1, 15]: 0.000778 s⁻¹
ke [1, 15]: 2.8
concentration at 0.3 h [1, 16]: 7510 ng/mL
concentration at 6 h [1, 17]: 222 ng/mL
Cmax [1, 18]: 16800 ng/mL
Tmax [1, 18]: < 15 min
half-life [1, 18]: 17.4 min
k el [1, 18]: 0.000667 s⁻¹
Clast [1, 19]: 168 ng/mL
ke [1, 19]: 2.4
AUC0-last [1, 20]: 11 400 h x ng/mL
Tlast [1, 20]: 6.00 h
AUC0-last [1, 21]: 11400 h x ng/mL
Tlast [1, 21]: 6 h
concentration in muscle [2, 22]: 605 ng/mL and 566 ng/mL
concentration in muscle [2, 23]: 364 ng/mL and 154 ng/mL and 193 ng/mL
concentration in muscle ([2]; 6.00 h after p.o. N-Acetyl-DL-Leucine 100 mg/kg): 159 ng/mL and 189 ng/mL
concentration in muscle ([2]; 24.0 h after p.o. N-Acetyl-DL-Leucine 100 mg/kg): 195 ng/mL and 153 ng/mL
concentration in muscle ([2]; 48.0 h after p.o. N-Acetyl-DL-Leucine 100 mg/kg): 102 ng/mL
concentration at 0.3 h [2, 24]: 469 ng/mL
concentration at 6 h ([2]; male, BALB/c, mouse, skeletal muscle, oral, 100 mg/kg, 6.00 h after p.o. N-Acetyl-DL-Leucine 100 mg/kg): 108 ng/mL
concentration at 24 h ([2]; male, BALB/c, mouse, skeletal muscle, oral, 100 mg/kg, 24.0 h after p.o. N-Acetyl-DL-Leucine 100 mg/kg): 136 ng/mL
concentration at 48 h ([2]; male, BALB/c, mouse, skeletal muscle, oral, 100 mg/kg, 48.0 h after p.o. N-Acetyl-DL-Leucine 100 mg/kg): 124 ng/mL
detection in brain ([3]; following oral dosing with the racemate, Fig 6B): not detectable at any time point
SMILES: CC(=O)N[C@@H](CC(C)C)C(=O)O [N-Acetyl-L-Leucine, N-acetyl-L-leucine]
concentration in plasma [1, 5]: 9090 ng/mL and 12400 ng/mL and 28900 ng/mL

concentration in plasma [1, 5]: 391 ng/mL and 336 ng/mL
concentration in plasma [1, 6]: 463 ng/mL and 388 ng/mL
concentration in plasma [1, 7]: 116 ng/mL and 144 ng/mL and 248 ng/mL
concentration in plasma [1, 8]: <LoQ and 45.6 ng/ml
concentration in plasma [1, 9]: <LoQ
concentration in plasma [1, 10]: <LoQ and 21.4 ng/ml
concentration in plasma [1, 11]: 15.0 ng/ml and <LoQ
concentration in plasma [1, 12]: <LoQ
concentration in plasma [1, 13]: <LoQ
concentration in plasma [1, 14]: <LoQ
actual dose proportionality for AUC ([1]; male, BALB/c, mouse, in vivo): 101 fold
actual dose proportionality for Cmax ([1]; male, BALB/c, mouse, in vivo): 197 fold
Clast [1, 15]: 247 ng/mL
Cmax [1, 15]: 86100 ng/mL
Tmax [1, 15]: < 15 min
half-life [1, 15]: 18.6 min
k el [1, 15]: 0.000611 s⁻¹
ke [1, 15]: 2.2
concentration at 0.15 h ([1]; male, BALB/c, mouse, plasma, oral, 100 mg/kg, concentration in plasma, 0.15 h after p.o. N-Acetyl-L-Leucine 100 mg/kg, individual mice): 582 ng/mL
concentration at 0.3 h [1, 16]: 392 ng/mL
concentration at 2 h ([1]; male, BALB/c, mouse, plasma, oral, 100 mg/kg, concentration in plasma, 2.00 h after p.o. N-Acetyl-L-Leucine 100 mg/kg, individual mice): 33.4 ng/mL
concentration at 6 h [1, 17]: 23.3 ng/mL
concentration at 8 h ([1]; male, BALB/c, mouse, plasma, oral, 100 mg/kg, concentration in plasma, 8.00 h after p.o. N-Acetyl-L-Leucine 100 mg/kg, individual mice): 17.3 ng/mL
Cmax [1, 18]: 436 ng/mL
Tmax [1, 18]: < 15 min
half-life [1, 18]: 15 min
k el [1, 18]: 0.000472 s⁻¹
AUC0-last [1, 19]: 573 h x ng/mL
ke [1, 19]: 1.7
Clast [1, 20]: 16.2 ng/mL
Tlast [1, 20]: 8.00 h
Clast [1, 25]: 16 ng/mL
Tlast [1, 25]: 8 h
concentration in muscle [2, 22]: 4370 ng/mL and 3590 ng/mL
concentration in muscle ([2]; 0.30 h after p.o. N-Acetyl-L-Leucine 100 mg/kg): 1110 ng/mL and 1520 ng/mL
concentration in muscle [2, 23]: 335 ng/mL and 396 ng/mL and 829 ng/mL
concentration in muscle ([2]; 2.00 h after p.o. N-Acetyl-L-Leucine 100 mg/kg): 119 ng/mL and 109 ng/mL
concentration at 0.3 h [2, 24]: 2860 ng/mL
concentration at 0.3 h ([2]; male, BALB/c, mouse, skeletal muscle, oral, 100 mg/kg, 0.30 h after p.o. N-Acetyl-L-Leucine 100 mg/kg): 1090 ng/mL
concentration at 2 h ([2]; male, BALB/c, mouse, skeletal muscle, oral, 100 mg/kg, 2.00 h after p.o. N-Acetyl-L-Leucine 100 mg/kg): 112 ng/mL
concentration in brain ([3]; 0.30 h after p.o. N-Acetyl-DL-Leucine 100 mg/kg, individual mice): 357 ng/mL and 491 ng/mL and 888 ng/mL
concentration in brain ([3]; 2.00 h after p.o. N-Acetyl-DL-Leucine 100 mg/kg, individual mice): <LoQ
concentration at 2 h ([3]; male, BALB/c, mouse, brain, oral, 100 mg/kg, 2.00 h after p.o. N-Acetyl-DL-Leucine 100 mg/kg, individual mice): 117 ng/mL
SMILES: CC(=O)N[C@H](CC(C)C)C(=O)O [N-Acetyl-D-Leucine, N-acetyl-D-leucine]

SMILES: CC(=O)NC(CC(C)C)C(=O)O (racemic) [N-Acetyl-DL-Leucine, N-acetyl-DL-leucine]
elimination half-life [4]: 60 to 108 min
